Measurements as given in patent publication US20160315271A1, “ORGANIC TRANSISTOR, COMPOUND, ORGANIC SEMICONDUCTOR MATERIAL FOR NON-LIGHT-EMITTING ORGANIC SEMICONDUCTOR DEVICE, MATERIAL FOR ORGANIC TRANSISTOR, COATING SOLUTION FOR NON-LIGHT-EMITTING ORGANIC SEMICONDUCTOR DEVICE, AND ORGANIC SEMICONDUCTOR FILM FOR NON-LIGHT-EMITTING ORGANIC SEMICONDUCTOR DEVICE” (FUJIFILM Corporation, priority 2014, published 2016).

Experiment: Solubility in toluene
[1] = 20 mg mixed with toluene (1 mL)
[2] = organic solvent or mixture, thermodynamic from solid

Row | SMILES | Solubility [1] | Solubility [2] [mg/mL]
1 | CCCCCCCCCCCCc1cc2cc3ccc4cc5cc(CCCCCCCCCCCC)sc5cc4c3cc2s1 [Compound 5] | A (Completely dissolved.) | 
2 | c1ccc(-n2c3ccccc3c3cc4ccc5cc6c7ccccc7n(-c7ccccc7)c6cc5c4cc32)cc1 [compound 2, reference compound] |  | < 20
3 | CCCCCCCCc1cc2cc3ccc4cc5cc(CCCCCCCC)n(C)c5cc4c3cc2n1C [Compound 3] | A (Completely dissolved.) | 
4 | CCCCCCCCc1csc(-c2cc3cc4ccc5cc6cc(-c7cc(CCCCCCCC)cs7)sc6cc5c4cc3s2)c1 [Compound 24] | A (Completely dissolved.) | 
5 | CCCCCCCCc1ccc(-c2cc3cc4ccc5cc6cc(-c7ccc(CCCCCCCC)s7)sc6cc5c4cc3s2)s1 [Compound 16] | A (Completely dissolved.) | 
6 | CCCCCCCCc1ccc(-c2cc3cc4ccc5cc6cc(-c7ccc(CCCCCCCC)cc7)sc6cc5c4cc3s2)cc1 [Compound 11] | A (Completely dissolved.) | 
7 | Cc1c(C)n(-c2ccccc2)c2c1ccc1c3ccc4c(C)c(C)n(-c5ccccc5)c4c3ccc12 [compound 1, reference compound] |  | < 20
